Test results taken from patent publication US4684739A, “Alkylenedioxybenzene derivatives and acid addition salts thereof” (Mitsubishi Chemical Industries Limited, priority 1980, dated 1987).
Structures can show the parent of a compound that is named as a salt.

What was measured:
[1] = system: spontaneous hypertensive rats (SHR); experiment: Hypotensive effect in spontaneous hypertensive rats after oral administration; type: in vivo; settings: Rattus norvegicus, percent drop relative to blood pressure before medication; for inhibition in vivo at 1 mg/kg: 1 mg/kg p.o.; for inhibition in vivo at 3 mg/kg: 3 mg/kg p.o.; for inhibition in vivo at 10 mg/kg: 10 mg/kg p.o.
Description: The hypotensive activities of the compounds of this invention were tested as follows: The test animals used were spontaneous hypertensive rats (SHR) of 5 to 7 month old weighing 300 to 370 g. The blood pressure and the heart rate were measured bloodily under no anesthesia by means of a cathether which has been inserted through the tail's artery under ether anesthesia, thereby determining the average blood pressure and heart rate before medication. […] The hypotensive effect was expressed as percent drop relative to the blood pressure before medication.

[2] = Acute toxicity (LD50) in mice, Litchfield-Wilcoxon method; settings: mouse, in vivo
Description: The values for acute toxicity (LD50 ) were calculated by the Litchfield-Wilcoxon method from the data obtained on mice.

Row | SMILES | inhibition in vivo at 1 mg/kg [1] [%] | inhibition in vivo at 3 mg/kg [1] [%] | inhibition in vivo at 10 mg/kg [1] [%] | LD50 ([2]; po) [mg/kg] | LD50 ([2]; ip) [mg/kg] | LD50 ([2]; iv) [mg/kg]
1 | Cl.OC(CNCC1COc2ccccc2O1)COc1ccc2c(c1)OCO2 (stereo not drawn) [Compound 1, 5-[3-{(1,4-benzodioxan-2-ylmethyl)amino}-2-hydroxypropoxy]-1,3-benzodioxole hydrochloride] | 9.9 | 15.4 | 27.6 | 515 |  | 
2 | OC(CNCC1COc2ccccc2O1)COc1ccc2c(c1)OCCO2 (stereo not drawn) [Compound 2, 6-[3-{(1,4-benzodioxan-2-ylmethyl)amino}-2-hydroxypropoxy]-1,4-benzodioxane] | 9 | 20.2 | 30.4 |  |  | 
3 | Cl.c1ccc2c(c1)OCC(CNCCCOc1ccc3c(c1)OCO3)O2 (stereo not drawn) [Compound 5, 5-[3-{(1,4-benzodioxan-2-ylmethyl)amino}propoxy]-1,3-benzodioxole hydrochloride] |  | 32.6 | 47.6 |  | 165 | 
4 | c1ccc2c(c1)OCC(CNCCCCOc1ccc3c(c1)OCO3)O2 (stereo not drawn) [Compound 6] |  | 28.5 | 32 |  |  | 
5 | c1ccc2c(c1)OCC(CNCCCOc1ccc3c(c1)OCCO3)O2 (stereo not drawn) [Compound 7, 6-[3-{(1,4-benzodioxan-2-ylmethyl)amino}propoxy]-1,4-benzodioxane] |  | 35.2 | 55.3 |  |  | 
6 | c1ccc2c(c1)OCC(CNCCCOc1ccc3c(c1)OCCCO3)O2 (stereo not drawn) [Compound 9, 1-[3-{(1,4-benzodioxan-2-ylmethyl)amino}propoxy]-3,4-trimethylenedioxybenzene] |  | 30.1 | 48.4 |  |  | 
7 | c1ccc2c(c1)OCC(CNCCCCOc1cccc3c1OCO3)O2 (stereo not drawn) [Compound 10] |  | 30.6 | 40 |  |  | 
8 | Cl.O=C(CNCC1COc2ccccc2O1)c1ccc2c(c1)OCO2 (stereo not drawn) [Compound 12, 5-[2-{(1,4-benzodioxan-2-ylmethyl)amino}acetyl]-1,3-benzodioxole hydrochloride] | 20.1 | 28.2 | 42.3 | 1350 |  | 
9 | c1ccc2c(c1)OCC(CNCCCCc1ccc3c(c1)OCCO3)O2 (stereo not drawn) [Compound 16, 6-[4-{(1,4-benzodioxan-2-ylmethyl)amino}butyl]-1,4-benzodioxane] | 12.1 | 33.7 | 50 |  |  | 31
10 | c1ccc2c(c1)OCC(CNCCCCc1ccc3c(c1)OCCCO3)O2 (stereo not drawn) [Compound 17, 1-[4-{(1,4-benzodioxan-2-ylmethyl)amino}butyl]-3,4-trimethylenedioxybenzene hydrochloride] | 20.1 | 29.7 |  |  |  | 
11 | O=C(CCNCC1COc2ccccc2O1)Nc1ccc2c(c1)OCO2 (stereo not drawn) [Compound 18, N-[3-{(1,4-benzodioxan-2-ylmethyl)amino}propionyl]-3,4-methylenedioxyaniline] | 11.9 | 27.5 | 41 |  |  | 
12 | c1ccc2c(c1)OCC(CNCCCNc1ccc3c(c1)OCO3)O2 (stereo not drawn) [Compound 19, N-[3-{(1,4-benzodioxan-2-ylmethyl)amino}propyl]-3,4-methylenedioxyaniline] | 19.6 | 27.8 | 44.3 |  |  | 
13 | OC(CNCC1COc2ccccc2O1)c1ccc2c(c1)OCCO2 (stereo not drawn) [Compound 21, 6-[2-{(1,4-benzodioxan-2-ylmethyl)amino}-1-hydroxyethyl]-1,4-benzodioxane] | 9.8 | 19.5 | 39.1 |  |  | 
14 | c1ccc2c(c1)OCC(CNCCOc1cccc3c1OCO3)O2 (stereo not drawn) [Compound 26, reference compound] |  | 3.5 | 8.1 |  |  | 
15 | O=C(CCNCC1COc2ccccc2O1)c1ccc2c(c1)OCO2 (stereo not drawn) [Compound 27, reference compound] | 7.8 | 12.8 | 30.3 |  |  | 
